Laboratory results as given in patent US8765747B2, “Fused 2-aminothiazole compounds” (Dana-Farber Cancer Institute, Inc., priority 2009, dated 2014).

Assays:
Type in all cases: cell-based, murine
Ba/F3-Y253C = assay: Relative IC50 in BCR-Abl-expressing cell line; settings: Mus musculus, 2.5-3 days, read-out: Relative IC50 range
Experimental: (§1) All compounds were initially dissolved in DMSO to make 10 mM stock solutions, and then were serially diluted to obtain final concentrations for in vitro experiments.
Ba/F3.p210 cells were obtained by transfecting the IL-3-dependent marine hematopoietic Ba/F3 cell line with a pGD vector containing p210BCR-ABL (B2A2) cDNA (Daley and Baltimore, 1988; Sattler et al., 1996; Okuda et al., 1996). Murine hematopoietic 32D cells were transduced with retrovirus to express p210 Bcr-ABL (32D.p210 cells) (Matulonis et al., 1993); the 32D-T315I cell line was transfected by electroporation with the imatinib resistant BCR-ABL construct (pCI-neo Mammalian Expression Vector; Promega (#E1841) harboring the point mutation T315I (Weisberg et al., 2005). Ba/F3 cells were stably transfected by electroporation with imatinib-resistant BCR-ABL constructs (pCI-neo Mammalian Expression Vector; Promega (#E1841) harboring the point mutations T315I, F317L, F486S, and M351T; transfectants were selected for neomycin resistance and IL-3-independent growth (Weisberg et al., 2005). Ba/F3 cells were stably transfected by electroporation with BCR-ABL point mutants identified in a random mutagenesis screen for BCR-ABL point mutants conferring resistance to nilotinib: Q252H, E292K, Y253C, Y253H, E255K, and V289L (Ray et al., 2007). […]

Ba/F3-T6701 = assay: Relative IC50 in kit-expressing cell line; settings: Mus musculus, 2.5-3 days, read-out: Relative IC50 range
Experimental: as §1
(§2) All cell lines were cultured with 5% CO2 at 37° C. in RPMI (Mediatech, Inc., Herndon, Va.) with 10% fetal calf serum (FCS) and supplemented with 1% L-glutamine. Parental Ba/F3 cells were similarly cultured with 15% WEHI-conditioned medium as a source of IL-3. Transfected cell lines were cultured in media supplemented with 1 mg/ml G418.

Ba/F3-V6559D = assay: Relative IC50 in kit-expressing cell line; settings: Mus musculus, 2.5-3 days, read-out: Relative IC50 range
Experimental: as §1, §2

Ba/F3-delWK + T6701 = assay: Relative IC50 in kit-expressing cell line; settings: Mus musculus, 2.5-3 days, read-out: Relative IC50 range
Experimental: as §1, §2

Ba/F3-delWK + V654A = assay: Relative IC50 in kit-expressing cell line; settings: Mus musculus, 2.5-3 days, read-out: Relative IC50 range
Experimental: as §1, §2

Ba/F3-delWK + Y823D = assay: Relative IC50 in kit-expressing cell line; settings: Mus musculus, 2.5-3 days, read-out: Relative IC50 range
Experimental: as §1, §2

Ba/F3-delWK = assay: Relative IC50 in kit-expressing cell line; settings: Mus musculus, 2.5-3 days, read-out: Relative IC50 range
Experimental: as §1, §2

Ba/F3-insAY + T6701 = assay: Relative IC50 in kit-expressing cell line; settings: Mus musculus, 2.5-3 days, read-out: Relative IC50 range
Experimental: as §1, §2

Ba/F3-insAY + V654A = assay: Relative IC50 in kit-expressing cell line; settings: Mus musculus, 2.5-3 days, read-out: Relative IC50 range
Experimental: as §1, §2

Ba/F3-insAY = assay: Relative IC50 in kit-expressing cell line; settings: Mus musculus, 2.5-3 days, read-out: Relative IC50 range
Experimental: as §1, §2

Ba/F3-PDGFRα-D842V = assay: Relative IC50 in PDGFR-expressing cell line; settings: Mus musculus, 48 h, 2 day experiment, read-out: Relative IC50 range
Experimental: as §1
(§3) Ba/F3.p210 cells were obtained by transfecting the IL-3-dependent marine hematopoietic Ba/F3 cell line with a pGD vector containing p210BCR-ABL (B2A2) cDNA (Daley and Baltimore, 1988; Sattler et al., 1996; Okuda et al., 1996). Murine hematopoietic 32D cells were transduced with retrovirus to express p210 Bcr-ABL (32D.p210 cells) (Matulonis et al., 1993); the 32D-T315I cell line was transfected by electroporation with the imatinib resistant BCR-ABL construct (pCI-neo Mammalian Expression Vector; Promega (#E1841) harboring the point mutation T315I (Weisberg et al., 2005). Ba/F3 cells were stably transfected by electroporation with imatinib-resistant BCR-ABL constructs (pCI-neo Mammalian Expression Vector; Promega (#E1841) harboring the point mutations T315I, F317L, F486S, and M351T; transfectants were selected for neomycin resistance and IL-3-independent growth (Weisberg et al., 2005). Ba/F3 cells were stably transfected by electroporation with BCR-ABL point mutants identified in a random mutagenesis screen for BCR-ABL point mutants conferring resistance to nilotinib: Q252H, E292K, Y253C, Y253H, E255K, and V289L (Ray et al., 2007). Ba/F3 cells were made to express Tel-PDGFRβ as described by Golub et al., 1994, and Carroll et al., 1996. Constructs of D842V-PDGFRα and V561D-PDGFRα cDNA cloned into pcDNA3.1 were stably transfected into Ba/F3 cells by electroporation, and cells were selected for neomycin resistance and IL3-independent growth as described by Weisberg et al., 2006.
as §2

Ba/F3-PDGFRα-V561D = assay: Relative IC50 in PDGFR-expressing cell line; settings: Mus musculus, 48 h, 2 day experiment, read-out: Relative IC50 range
Experimental: as §1, §3, §2

Ba/F3-TEL/PDGFRβ = assay: Relative IC50 in PDGFR-expressing cell line; settings: Mus musculus, 2.5-3 days, read-out: Relative IC50 range
Experimental: as §1, §3, §2

Ba/F3-PDGFRβ-T681I = assay: Relative IC50 in PDGFR-expressing cell line; settings: Mus musculus, 2.5-3 days, read-out: Relative IC50 range
Experimental: as §1, §2

32D-BCR-Abl-T3151 [1] = assay: Cell cycle analysis; settings: 24 hours of treatment
Description: as §3, §2
(§4) Cell cycle analysis was performed using approximately 500,000 cells, which were centrifuged at 1500 rpm for 5 min, washed in PBS, and the pellet re-suspended in 500 μl of propidium iodide solution (50 μg/ml propidium iodide, 0.1% NP-40, 0.1% sodium citrate). The mixture was stored in the dark at 4° C. for a minimum of 15 min, and then analyzed by flow cytometry. Apoptosis of drug-treated cells was measured using the Annexin-V-Fluos Staining Kit (Boehringer Mannheim, Indianapolis).

32D-BCR-Abl = assay: Cell cycle analysis; settings: 24 hours of treatment
Description: as §3, §2, §4

Ba/F3-PDGFRα-T674I = assay: Cell cycle analysis; settings: 24 hours of treatment
Experimental: as §2, §4

Ba/F3-PDGFRα-T674M = assay: Cell cycle analysis; settings: 24 hours of treatment
Experimental: as §2, §4

Ba/F3-kit-T6701 = assay: Cell cycle analysis; settings: 24 hours of treatment
Experimental: as §2, §4

32D-BCR-Abl-T3151 [2] = assay: Apoptosis assay; design: unit not given here; settings: 0.01 μM, approximately 3 days of treatment
Description: as §3, §2, §4
Cells cultured in the presence or absence of drug were washed 1× with phosphate-buffered saline (PBS) and centrifuged for 5 min at 1500 rpm. Washed cell pellets were re-suspended in 100 μl of 20% Annexin-V-fluorescein labeling reagent and 20% propidium iodide (PI) in HEPES buffer. Cells were incubated for 15 min at room temperature, followed by dilution with 0.8 ml of HEPES buffer. Samples were then analyzed by flow cytometry. As controls, cells were incubated for 15 min with PI alone, Annexin-V-fluorescein labeling reagent alone, or HEPES buffer, and then diluted with HEPES buffer and analyzed by flow cytometry.

## CCN1CCN(Cc2ccc(NC(=O)c3cccc(-c4ccc5nc(NC(=O)C6CC6)sc5n4)c3)cc2C(F)(F)F)CC1 [Compound 2]
Ba/F3-Y253C
  IC50: < 100 nM
Ba/F3-T6701
  IC50: 250 nM
Ba/F3-V6559D
  IC50: 250 to 500 nM
Ba/F3-delWK + T6701
  IC50: 25 to 50 nM
Ba/F3-delWK + V654A
  IC50: 25 to 50 nM
Ba/F3-delWK + Y823D
  IC50: 500 to 1000 nM
Ba/F3-delWK
  IC50: 12.5 to 25 nM
Ba/F3-insAY + T6701
  IC50: ≥ 1000 nM
Ba/F3-insAY + V654A
  IC50: > 1000 nM
Ba/F3-insAY
  IC50: > 1000 nM
Ba/F3-PDGFRα-D842V
  IC50: 1000 nM
Ba/F3-PDGFRα-V561D
  IC50: > 1000 nM
Ba/F3-TEL/PDGFRβ
  IC50: < 100 nM
Ba/F3-PDGFRβ-T681I
  IC50: > 1000 nM
32D-BCR-Abl-T3151 [1]; 0.01 μM
  % G0G1: 36.96%
  % G2M: 22.64%
  % S: 40.40%
32D-BCR-Abl-T3151 [1]; 0.1 μM
  % G0G1: 46.35%
  % G2M: 10.54%
  % S: 43.11%
32D-BCR-Abl-T3151 [1]; 1.0 μM
  % G0G1: 73.13%
  % G2M: 9.29%
  % S: 17.59%
32D-BCR-Abl; 0.01 μM
  % G0G1: 42.62%
  % G2M: 9.56%
  % S: 47.82%
32D-BCR-Abl; 0.1 μM
  % G0G1: 76.52%
  % G2M: 3.78%
  % S: 19.71%
32D-BCR-Abl; 1.0 μM
  % G0G1: 77.44%
  % G2M: 9.07%
  % S: 13.49%
Ba/F3-PDGFRα-T674I; 0.01 μM
  % G0G1: 57.30%
  % G2M: 5.98%
  % S: 36.72%
Ba/F3-PDGFRα-T674I; 0.1 μM
  % G0G1: 64.90%
  % G2M: 5.82%
  % S: 29.28%
Ba/F3-PDGFRα-T674I; 1.0 μM
  % G0G1: 77.55%
  % G2M: 7.16%
  % S: 15.29%
Ba/F3-PDGFRα-T674M; 0.01 μM
  % G0G1: 40.81%
  % G2M: 7.41%
  % S: 51.78%
Ba/F3-PDGFRα-T674M; 0.1 μM
  % G0G1: 72.37%
  % G2M: 3.62%
  % S: 24.01%
Ba/F3-PDGFRα-T674M; 1.0 μM
  % G0G1: 79.92%
  % G2M: 2.46%
  % S: 17.61%
Ba/F3-kit-T6701; 0.01 μM
  % G0G1: 35.2%
  % G2M: 14.62%
  % S: 50.19%
Ba/F3-kit-T6701; 0.1 μM
  % G0G1: 29.01%
  % G2M: 16.54%
  % S: 54.45%
Ba/F3-kit-T6701; 1.0 μM
  % G0G1: 52.57%
  % G2M: 10.05%
  % S: 37.38%
32D-BCR-Abl-T3151 [2]
  Apoptotic: 9.0
  Necrotic: 0.1
  Viable: 90.88
